# Laboratory results published in patent publication US9790496B2, “Microrna compounds and methods for modulating MIR-21 activity” (Regulus Therapeutics, Inc., priority 2011, dated 2017).
# Several values for one entry are separate records, joined by “and”; a condition that tells them apart may be missing. Identical values can stand only once.
# Tested on: collagen 1A1 and collagen 3A1 expression in kidney, unilateral ureteral obstruction (UUO) model
# Assay: UUO model of kidney fibrosis: kidney collagen 1A1 and collagen 3A1 expression by real-time PCR
# Format: in vivo, mice
# Conditions: for Collagen 1A1 (Normalized Expression), individual animal / Collagen 3A1 (Normalized Expression), individual animal: 20 mg/kg
# Method in brief: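 Fibrosis induced by unilateral ureter ligation, groups of 8; anti-miR-21 compounds dosed at 20 mg/kg around surgery (days −3, −1, +5 or −5, −3, +3; repeat study subcutaneous at −5, −2, +3). Kidneys taken on day 10 or 11; Col1A1 and Col3A1 mRNA measured by real-time PCR, normalized to GAPDH and, in one study, also to sham.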
# [1] = UUO comparison study, 25070 20 mg/kg s.c. at days -5, -2, +3, irbesartan PO daily days 0-7, sacrifice Day 10
# [2] = UUO, 20 mg/kg at days -3, -1, +5 (prophylactic), kidney at day 11, real-time PCR normalized to GAPDH then sham
# [3] = meta-analysis of repeated UUO studies, 20 mg/kg at days -3, -1, +5, kidney at day 11
# [4] = repeat UUO study, 20 mg/kg SC, prophylactic
sequence,measurement,setting,value
"AECSATCSAGTCSTGAUSAAGCSTAE (ACATCAGTCTGATAAGCTA; modified nucleosides coded in name, code key not given here) [Compound 25070]","Collagen 1A1 (Normalized Expression), individual animal",[1],87.5 and 67.4 and 22.2 and 61.9 and 42.0 and 69.2 and 68.4 and 95.2
same,"Collagen 3A1 (Normalized Expression), individual animal",[1],38.6 and 56.9 and 77.2 and 50.7 and 76.4 and 49.7 and 44.3 and 35.9
same,reduction in Col3a1 expression (in words),"UUO comparison with irbesartan, 25070 s.c. 20 mg/kg days -5, -2, +3, irbesartan perorally daily days 0-7, day 10",statistically significant reductions
same,reduction in Col1A1 expression relative to saline-treated animals (in words),"UUO comparison with irbesartan, 25070 s.c. 20 mg/kg days -5, -2, +3, irbesartan perorally daily days 0-7, day 10, p<0.05 one-way ANOVA",statistically significant reduction
same,"Collagen 1A1 (Normalized Expression), Mean","UUO, 20 mg/kg at days -3, -1, +5 (prophylactic), kidney at day 11, group mean",81.0
same,"Collagen 1A1 (Normalized Expression), individual animal",[2],67.7 and 97.7 and 88.8 and 95.9 and 71.4 and 44.5 and 73.0 and 109.4
same,"Collagen 3A1 (Normalized Expression), individual animal",[2],36.4 and 75.6 and 47.3 and 55.5 and 63.3 and 28.5 and 64.2 and 72.9
same,inhibition of collagen 1A1 expression,[3],40%
same,inhibition of collagen 3A1 expression,[3],30%
same,"Collagen 1A1 (Normalized Expression), individual animal",[4],13.9 and 9.2 and 32.3 and 57.2 and 47.6 and 26.1 and 35.0 and 20.4
same,"Collagen 3A1 (Normalized Expression), individual animal",[4],34.9 and 47.4 and 25.3 and 38.0 and 47.9 and 54.3 and 56.1 and 35.2
same,inhibition of collagen 1A1 and collagen 3A1 expression (in words),"repeated UUO study, subcutaneously 20 mg/kg, prophylactic",potent inhibitor of collagen 1A1 and collagen 3A1 expression
